Measured values from patent publication US8530512B2, “Broad spectrum gram-positive antimicrobials and anthelmintics with efficacy against drug-resistant strains and Mycobacterium species” (priority 2004, dated 2013).
Converted amounts (≈) assume the structure as drawn. Where two headings read alike, the source gives them in different places.

Assays:
[1] = system: M. smegmatis; assay: MIC assay; format: cell-based; conditions: Mycolicibacterium smegmatis, read-out: MIC M. smegmatis
[2] = system: Staphylococcus aureus ATCC 29213; assay: microbe, parasite or virus in culture; format: cell-based; conditions: Staphylococcus aureus, ATCC29213
[3] = system: Enterococcus faecium VRE 1; assay: organism not typed; format: cell-based; conditions: for MIC E. faecium VRE 1, G+: Table 3; for MIC: read-out: MIC VRE
[4] = system: C. elegans L1 larvae; assay: developmental assay; format: in vivo; design: key to Developmental score, 1/1600 / Developmental score, 1/800 / Developmental score, 1/400 / Developmental score, 1/200 / Developmental score, 1/100: dead (+++); distressed (++); slightly delayed (+); the same as M9-only untreated wells (−); conditions: after four days, Ive 1 ng/μL in each well; for Developmental score, 1/100: dilution 1/100; for Developmental score, 1/200: dilution 1/200; for Developmental score, 1/400: dilution 1/400; for Developmental score, 1/800: dilution 1/800; for Developmental score, 1/1600: dilution 1/1600
[5] = system: Staphylococcus aureus MRSA MC-1; assay: microbe, parasite or virus in culture; format: cell-based; conditions: Staphylococcus aureus, MRSA
[6] = system: Bacillus cereus; assay: microbe, parasite or virus in culture; format: cell-based; conditions: for MIC: Bacillus cereus, per-compound listing, Example 6, read-out: MIC B. cereus; for MIC B. cereus, G+ (anthrax surrogate): Table 3
[7] = system: C. elegans; assay: motility assay; format: in vivo; design: key to Movement score, 1/1600 / Movement score, 1/800 / Movement score, 1/400 / Movement score, 1/200 / Movement score, 1/100: normal (−); slow (+); very slow (++); not motile/paralyzed (+++); conditions: for Movement score, 1/100: dilution 1/100 of stock (10.24 μg/μL; SK-03-92 1.024 μg/μL); for Movement score, 1/100 / Movement score, 1/200 / Movement score, 1/400 / Movement score, 1/800 / Movement score, 1/1600: Ive 1 ng/μL in all wells; for Movement score, 1/200: dilution 1/200 of stock (10.24 μg/μL; SK-03-92 1.024 μg/μL); for Movement score, 1/400: dilution 1/400 of stock (10.24 μg/μL; SK-03-92 1.024 μg/μL); for Movement score, 1/800: dilution 1/800 of stock (10.24 μg/μL; SK-03-92 1.024 μg/μL); for Movement score, 1/1600: dilution 1/1600 of stock (10.24 μg/μL; SK-03-92 1.024 μg/μL), overnight 20° C.; for effect on worms at the lowest concentrations tested: at least triplicate
[8] = system: Streptococcus pyogenes; assay: microbe, parasite or virus in culture; format: cell-based; conditions: for MIC: Streptococcus pyogenes, per-compound listing, Example 6, read-out: MIC S. pyogenes; for MIC S. pyogenes, G+: Table 3
[9] = system: M. kansasii; assay: MIC assay; format: cell-based; conditions: Mycobacterium kansasii, read-out: MIC M. kansasii
[10] = system: Mycobacterium avium; assay: MIC assay; format: cell-based; conditions: Mycobacterium avium, read-out: MIC M. avium
[11] = system: Mycobacterium fortuitum; assay: MIC assay; format: cell-based; conditions: Mycolicibacterium fortuitum, read-out: MIC M. fortuitum
[12] = system: Mycobacterium chelonae; assay: MIC assay; format: cell-based; conditions: read-out: MIC M. chelonae
[13] = system: Mycobacterium intracellulare; assay: MIC assay; format: cell-based; conditions: Mycobacterium intracellulare, read-out: MIC M. intracellulare
[14] = per-compound listing, Example 6
[15] = per-compound listing, Example 6, read-out: MIC S. aureus
[16] = Table 6, read-out: MIC S. aureus ATCC 29213

| Compound | MIC [1, 14] [µg/mL] | MIC [2, 15] [µg/mL] | MIC E. faecium VRE 1, G+ [3] [µg/mL] | MIC [3] [µg/mL] | Developmental score, 1/100 [4] | Developmental score, 1/200 [4] | Developmental score, 1/400 [4] | Developmental score, 1/800 [4] | Developmental score, 1/1600 [4] | MIC ([5]; read-out: MIC MRSA) [µg/mL] | MIC [6] [µg/mL] | MIC B. cereus, G+ (anthrax surrogate) [6] [µg/mL] | Movement score, 1/100 [7] | Movement score, 1/200 [7] | Movement score, 1/400 [7] | Movement score, 1/800 [7] | Movement score, 1/1600 [7] | MIC [8] [µg/mL] | MIC S. pyogenes, G+ [8] [µg/mL] | MIC [2, 16] [µg/mL] | also measured |
| --- | --- | --- | --- | --- | --- | --- | --- | --- | --- | --- | --- | --- | --- | --- | --- | --- | --- | --- | --- | --- | --- |
| COc1ccc(O/C=C/c2cc(O)cc(OC)c2)cc1 [Compound A6, 4-Methoxyphenyl-E-(3-hydroxy-5methoxy)-styryl ether] | 128 (≈ 470 µM) | 32 (≈ 118 µM) | 64 (≈ 235 µM) | 64 (≈ 235 µM) | +++ | +++ | + | − | − | 64 (≈ 235 µM) | 64 (≈ 235 µM) | 64 (≈ 235 µM) | +++ | +++ | ++ | + | − | 32 (≈ 118 µM) | 32 (≈ 118 µM) |  |  |
| COc1cc(O)cc(/C=C/Oc2cccc(OC)c2)c1 [Compound A8, 3-Methoxyphenyl-E-(3-hydroxy-5-methoxy)-styryl ether] | 128 (≈ 470 µM) | 32 (≈ 118 µM) | 64 (≈ 235 µM) | 64 (≈ 235 µM) | +++ | +++ | − | − | − | 64 (≈ 235 µM) | 64 (≈ 235 µM) | 64 (≈ 235 µM) | +++ | ++ | ++ | + | + | 16 (≈ 58.8 µM) | 16 (≈ 58.8 µM) |  |  |
| COc1cc(O)cc(/C=C/Oc2cccc(C)c2)c1 [Compound A9, 3-Methylphenyl-E-(3-hydroxy-5-methoxy)-styryl ether] | 64 (≈ 250 µM) | 16 (≈ 62.4 µM) | 32 (≈ 125 µM) | 32 (≈ 125 µM) | +++ | +++ | +++ | − | − | 32 (≈ 125 µM) | 32 (≈ 125 µM) | 16 (≈ 62.4 µM) | +++ | +++ | ++ | ++ | + | 32 (≈ 125 µM) | 32 (≈ 125 µM) |  | effect on worms at the lowest concentrations tested [7]: reduced motility, paralysis, or death |
| COc1cc(O)cc(/C=C/Oc2ccc(C)cc2)c1 [Compound A10, 4-Methylphenyl-E-(3-hydroxy-5-methoxy)-styryl ether] | > 128 | 16 (≈ 62.4 µM) | 32 (≈ 125 µM) | 32 (≈ 125 µM) | +++ | +++ | ++ | − | − | 32 (≈ 125 µM) | 64 (≈ 250 µM) | 64 (≈ 250 µM) | +++ | +++ | +++ | ++ | + | 32 (≈ 125 µM) | 32 (≈ 125 µM) |  | effect on worms at the lowest concentrations tested [7]: reduced motility, paralysis, or death |
| COc1cc(O)cc(/C=C/c2ccc(O)cc2)c1 [SK-04-02] |  |  |  |  |  |  |  |  |  |  |  |  |  |  |  |  |  |  |  | 32 (≈ 132 µM) | MIC [1]: 64 µg/mL (≈ 264 µM); MIC [9]: 32 µg/mL (≈ 132 µM); MIC [10]: 16 µg/mL (≈ 66 µM); MIC ([5]; Table 6, read-out: MIC S. aureus MC-1): 32 µg/mL (≈ 132 µM); MIC [11]: 64 µg/mL (≈ 264 µM); MIC [12]: 32 µg/mL (≈ 132 µM); MIC [13]: 16 µg/mL (≈ 66 µM) |
| COc1cc(O)cc(/C=C/c2cccc(O)c2)c1 [SK-04-03] |  |  |  |  | +++ | + | − | − | − |  |  |  | ++ | ++ | + | + | − |  |  | 32 (≈ 132 µM) | MIC ([1]; Table 6): 64 µg/mL (≈ 264 µM); MIC ([9]; Table 6): 64 µg/mL (≈ 264 µM); MIC ([10]; Table 6): 8 µg/mL (≈ 33 µM); MIC ([5]; read-out: MIC S. aureus MC-1): 16 µg/mL (≈ 66 µM); MIC ([11]; Table 6): 64 µg/mL (≈ 264 µM); MIC ([12]; Table 6): 64 µg/mL (≈ 264 µM); MIC ([13]; Table 6): 16 µg/mL (≈ 66 µM) |
| COc1cc(O)cc(C#Cc2ccccc2)c1 [SK-04-08] |  |  |  |  | +++ | +++ | − | − | − |  |  |  | +++ | +++ | ++ | + | + |  |  | 32 (≈ 143 µM) | MIC ([1]; Table 6): 64 µg/mL (≈ 285 µM); MIC ([9]; Table 6): 32 µg/mL (≈ 143 µM); MIC ([10]; Table 6): 16 µg/mL (≈ 71.3 µM); MIC ([5]; read-out: MIC S. aureus MC-1): 1 µg/mL (≈ 4.46 µM); MIC ([11]; Table 6): 32 µg/mL (≈ 143 µM); MIC ([13]; Table 6): 16 µg/mL (≈ 71.3 µM) |
